{"source": "patent US20240325451A1", "about": "“METHODS OF INDUCING ORGAN TRANSPLANTATION IMMUNE TOLERANCE AND ASSOCIATED COMPOSITIONS AND METHODS” (CITY OF HOPE, priority 2023, published 2024)", "tested_on": "donor-type and host-type T, B and myeloid cells", "experiment": "Mixed chimerism status by flow cytometry", "conditions": "PB and SPL of Foxp3DTR MCs"}
{"substance": "diphtheria toxin [DT]", "values": [{"measurement": "MC status before and after treatment", "value": "did not have significant impact"}]}
